The values below come from the Kinase Knowledgebase extract (Sharma et al. 2016).

PIK3CD (Human), sequence (O00329 whole entry, looked up): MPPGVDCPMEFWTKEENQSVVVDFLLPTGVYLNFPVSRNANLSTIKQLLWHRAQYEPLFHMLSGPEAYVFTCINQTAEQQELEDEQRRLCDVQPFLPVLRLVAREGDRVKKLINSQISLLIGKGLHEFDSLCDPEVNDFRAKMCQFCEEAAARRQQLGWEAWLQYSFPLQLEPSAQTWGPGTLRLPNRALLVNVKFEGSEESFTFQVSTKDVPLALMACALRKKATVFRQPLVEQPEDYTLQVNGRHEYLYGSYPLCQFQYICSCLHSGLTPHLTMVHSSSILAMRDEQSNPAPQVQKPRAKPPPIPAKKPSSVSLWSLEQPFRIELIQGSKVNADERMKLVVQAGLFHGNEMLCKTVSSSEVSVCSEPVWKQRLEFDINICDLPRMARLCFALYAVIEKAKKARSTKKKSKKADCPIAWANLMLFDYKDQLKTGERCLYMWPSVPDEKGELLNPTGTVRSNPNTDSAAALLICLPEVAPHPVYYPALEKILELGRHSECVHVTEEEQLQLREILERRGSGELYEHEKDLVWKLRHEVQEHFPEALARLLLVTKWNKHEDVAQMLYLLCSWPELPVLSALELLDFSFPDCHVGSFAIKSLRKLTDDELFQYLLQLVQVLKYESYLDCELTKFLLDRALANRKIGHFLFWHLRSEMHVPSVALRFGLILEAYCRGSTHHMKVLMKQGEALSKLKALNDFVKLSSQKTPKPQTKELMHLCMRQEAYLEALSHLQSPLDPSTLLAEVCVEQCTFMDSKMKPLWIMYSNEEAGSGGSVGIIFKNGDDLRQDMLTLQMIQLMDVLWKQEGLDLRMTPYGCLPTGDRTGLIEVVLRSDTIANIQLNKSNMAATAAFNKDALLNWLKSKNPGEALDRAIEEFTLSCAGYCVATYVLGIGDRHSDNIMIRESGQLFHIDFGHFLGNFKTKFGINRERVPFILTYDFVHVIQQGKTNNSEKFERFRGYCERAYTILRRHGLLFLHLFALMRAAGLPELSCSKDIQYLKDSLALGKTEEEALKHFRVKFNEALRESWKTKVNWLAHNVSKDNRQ

The assay has as its target PIK3CD (Human) (UniProt O00329). The assay is described as follows: Cell-Free Assay.
`CNCCNc1nc([C@H](C)Nc2ncnc(N)c2C#N)nn2ccc(C)c12` gave a concentration for half-maximal inhibition (IC50) of 6.1 nM.

The compound `Cc1cc(C(=O)O)cc(-c2nc([C@H](C)Nc3ncnc(N)c3C#N)nn3ccc(C)c23)c1` registered an IC50 of 0.4 nM.

`Cc1ccn2nc([C@H](Cc3cccc(O)c3)Nc3ncnc(N)c3C#N)nc(N3C[C@@H](C)N[C@@H](C)C3)c12` had an IC50 of 8.8 nM.

In turn, `CN[C@H]1CCCC[C@@H]1N(C)c1nc([C@H](C)Nc2ncnc(N)c2C#N)nn2ccc(C)c12` showed a 50% inhibitory concentration (IC50) of 10.6 nM.

For `Cc1ccn2nc(Cn3nc(-c4cc(O)cc(F)c4)c4c(N)ncnc43)nc(NCCN3CCCC3)c12`, the IC50 is 1.1 nM.

As for `Cc1ccn2nc(Cn3nc(-c4cc(O)cc(NS(C)(=O)=O)c4)c4c(N)ncnc43)nc(N3C[C@@H](C)N[C@@H](C)C3)c12`, the IC50 amounted to 0.5 nM.

For `CC(C)Oc1nc([C@H](C)Nc2ncnc(N)c2C#N)nn2cccc12`, the IC50 came out at 62 nM.

Take `Cc1ccn2nc([C@H](C)Nc3ncnc(N)c3C#N)nc(-c3ccc(O)c(C(C)(C)O)c3)c12`: the IC50 amounted to 8 nM.

In turn, `Cc1ccn2nc([C@H](C)Nc3ncnc(N)c3C#N)nc(N(CCN3CCOCC3)c3cccc(O)c3)c12` returned an IC50 of 13 nM.

`Cc1ccn2nc([C@H](C)Nc3ncnc(N)c3C#N)nc(OC3CCN(C(C)C)CC3)c12` showed an IC50 of 6 nM.

Consider `Cc1ccn2nc(Cn3nc(-c4cc(O)cc(F)c4)c4c(N)ncnc43)nc(N3CCS(=O)(=O)CC3)c12`, for which the IC50 was determined as 2.5 nM.

With `Cc1ccn2nc([C@H](C)Nc3ncnc(N)c3C#N)nc(-c3ccnc(N4CCC(N(C)C)CC4)c3)c12`, the IC50 turned out to be 5.9 nM.

`Cc1ccn2nc(Cn3nc(-c4cc(O)cc(F)c4)c4c(N)ncnc43)nc(N3CCC(C(N)=O)CC3)c12` registered an IC50 of 2.8 nM.

Compound `Cc1ccn2nc(Cn3nc(-c4cncc(O)c4)c4c(N)ncnc43)nc(N3C[C@@H](C)N[C@@H](C)C3)c12` came in with an IC50 of 0.9 nM.

In turn, `Cc1ccn2nc([C@H](C)Nc3ncnc(N)c3-c3cc(O)cc(F)c3)nc(OCC3CCOCC3)c12` came in with an IC50 of 62 nM.

In turn, `Cc1ccn2nc([C@H](C)Nc3ncnc(N)c3C#N)nc(N(CCN(C)C)Cc3ccc(N4CCN(C)CC4)cc3)c12` showed an IC50 of 2.9 nM.

`Cc1cc(-c2nc([C@H](C)Nc3ncnc(N)c3C#N)nn3cccc23)cc(C)c1C(=O)NCCO` returned an IC50 of 11.4 nM.

For the compound `Cc1ccn2nc([C@H](C)Nc3ncnc(N)c3C#N)nc(N3C[C@@H](C)N[C@@H](C)C3)c12`, the IC50 was 0.5 nM.

Turning to `Cc1ccn2nc([C@H](C)Nc3ncnc(N)c3C#N)nc(-c3cc(O)cc(C(=O)NCCN(C)C)c3)c12`, the IC50 amounted to 3.6 nM.

`CCOC(=O)C1CCN(CCOc2nc(Cn3nc(-c4cc(O)cc(F)c4)c4c(N)ncnc43)nn3ccc(C)c23)CC1` yielded a 50% inhibitory concentration (IC50) of 1.2 nM.

As to `CC(=O)N1[C@H](C)CN(c2nc([C@H](C)Nc3ncnc(N)c3C#N)nn3ccc(C)c23)C[C@@H]1C`, the IC50 worked out at 45.4 nM.

`COc1cccc(N(C)c2nc([C@H](C)Nc3ncnc(N)c3C#N)nn3ccc(C)c23)c1` gave an IC50 of 19 nM.

`Cc1ccn2nc([C@H](C)Nc3ncnc(N)c3C#N)nc(Oc3cccc(NCCN(C)C)c3)c12` showed an IC50 of 10 nM.

In the case of `Cc1ccn2nc([C@H](C)Nc3ncnc(N)c3C#N)nc(N[C@@H](Cc3ccc(O)cc3)C(N)=O)c12`, the IC50 was determined as 14.6 nM.

For `COc1ncc(-c2nc([C@H](C)Nc3ncnc(N)c3C#N)nn3ccc(C)c23)cc1NS(C)(=O)=O`, the IC50 was 7 nM.

For the compound `Cc1ccn2nc(Cn3nc(-c4cc(O)cc(F)c4)c4c(N)ncnc43)nc(OCCN3CCOCC3)c12`, the IC50 worked out at 0.8 nM.

For the compound `Cc1ccn2nc(Cn3nc(-c4cc(O)cc(F)c4)c4c(N)ncnc43)nc(N3C[C@@H]4CC[C@H]3CN4S(C)(=O)=O)c12`, the IC50 worked out at 5.9 nM.

In the case of `C[C@H](Nc1ncnc(N)c1C#N)c1nc(OCC2CCOCC2)c2c(Br)ccn2n1`, the IC50 was 6 nM.

`Cc1cc(C(=O)NCc2ccc(S(N)(=O)=O)cc2)cc(-c2nc([C@H](C)Nc3ncnc(N)c3C#N)nn3cccc23)c1` registered an IC50 of 76.7 nM.

The compound `COc1ccc(S(=O)(=O)Nc2cc(-c3nc([C@H](C)Nc4ncnc(N)c4C#N)nn4ccc(C)c34)cnc2O)cc1` showed an IC50 of 10 nM.

`Cc1ccn2nc([C@H](C)Nc3ncnc4[nH]cc(C#N)c34)nc(N(CCN(C)C)c3cccc(O)c3)c12` registered an IC50 of 1 nM.

On to `COc1ncc(-c2c[nH]c3ncnc(N[C@@H](C)c4nc(N5C[C@@H](C)O[C@@H](C)C5)c5c(C)ccn5n4)c23)cc1NS(C)(=O)=O`, for which the IC50 was found to be 0.5 nM.

In turn, `Cc1cc(C(=O)NCc2ccc(C(=O)NCCO)cc2)cc(-c2nc([C@H](C)Nc3ncnc(N)c3C#N)nn3ccc(C)c23)c1` yielded an IC50 of 2.6 nM.

With `Cc1cc(-c2nc([C@H](C)Nc3ncnc(N)c3C#N)nn3ccc(C)c23)n(C)n1`, the half-inhibitory concentration (IC50) amounted to 9.9 nM.

Take `Cc1ccn2nc([C@H](C)Nc3ncnc(N)c3C#N)nc(N3CCC(CN4CCCC4)CC3)c12`: the IC50 is 6.2 nM.

With `Cc1ccn2nc(Cn3nc(-c4cc(O)cc(F)c4)c4c(N)ncnc43)nc(OC3CCN(C(C)C)CC3)c12`, the IC50 came out at 1 nM.

In turn, `Cc1ccn2nc(Cn3nc(-c4cc(O)cc(F)c4)c4c(N)ncnc43)nc(N3CCSCC3)c12` returned an IC50 of 2.7 nM.

Consider `Cc1ccn2nc(Cn3nc(-c4cc(O)cc(F)c4)c4c(N)ncnc43)nc(N3C[C@@H]4C[C@H]3CN4)c12`, for which the IC50 came to 1 nM.

`Cc1ccn2nc(Cn3nc(-c4cc(O)cc(F)c4)c4c(N)ncnc43)nc(N3C[C@@H](C)O[C@@H](C)C3)c12`: the IC50 amounted to 1 nM.

On to `Cc1cc(C(=O)NCCCCCN(C)CCO)cc(-c2nc([C@H](C)Nc3ncnc(N)c3C#N)nn3ccc(C)c23)c1`, for which the IC50 came out at 3.1 nM.

In turn, `Cc1ccn2nc(Cn3nc(-c4cc(O)cc(F)c4)c4c(N)ncnc43)nc(OCCN3CCCC3=O)c12` registered an IC50 of 2.5 nM.

On to `Cc1ccn2nc([C@H](C)Nc3ncnc4[nH]cc(-c5cc(O)cc(NS(=O)(=O)CCN(C)C)c5)c34)nc(N3C[C@@H](C)N[C@@H](C)C3)c12`, for which the half-inhibitory concentration (IC50) worked out at 6.2 nM.

Take `Cc1ccn2nc([C@H](C)Nc3ncnc(N)c3C#N)nc(-c3cc(O)cc(C(F)(F)F)c3)c12`: the IC50 was 1 nM.

On to `Cc1ccn2nc(Cn3nc(-c4cc(O)cc(F)c4)c4c(N)ncnc43)nc(OCCN3CCC(C(=O)O)CC3)c12`, for which the IC50 came out at 0.6 nM.

As for `C[C@H](Nc1ncnc(N)c1C#N)c1nc(OCC2CCNCC2)c2cccn2n1`, the IC50 came to 27 nM.

On to `Cc1ccn2nc(Cn3nc(-c4cc(O)cc(F)c4)c4c(N)ncnc43)nc(OCC3CCOCC3)c12`, for which the IC50 is 2 nM.

The compound `Cc1cc(-c2nc([C@H](C)Nc3ncnc(N)c3C#N)nn3ccc(C)c23)cc(C)c1O` showed an IC50 of 0.3 nM.

For `Cc1ccn2nc([C@H](C)Nc3ncnc(N)c3C#N)nc(CCN3CCOCC3)c12`, the IC50 was 1.9 nM.

The compound `C[C@H](Nc1ncnc(N)c1C#N)c1nc(OCC2CCOCC2)c2c(C#N)ccn2n1` had an IC50 of 31 nM.

`Cc1ccn2nc([C@H](C)Nc3ncnc4[nH]cc(-c5cnn(C)c5)c34)nc(N3C[C@@H](C)N[C@@H](C)C3)c12` gave an IC50 of 2 nM.

In turn, `Cc1ccn2nc([C@H](C)Nc3ncnc(N)c3C#N)nc(-c3cc(O)cc(C(=O)NC4CC4)c3)c12` yielded an IC50 of 2 nM.

Consider `Cc1ccn2nc(Cn3nc(-c4cc(O)cc(F)c4)c4c(N)ncnc43)nc(N3CCCNCC3)c12`, for which the IC50 worked out at 6.1 nM.

In turn, `Cc1ccn2nc([C@H](C)Nc3ncnc(N)c3C#N)nc(-c3cc(O)cc(C#N)c3)c12` displayed an IC50 of 1.3 nM.

`Cc1ccn2nc(Cn3nc(-c4cc(O)cc(F)c4)c4c(N)ncnc43)nc(N(CCN(C)C)c3cccc(O)c3)c12`: the IC50 is 0.1 nM.

`Cc1ccn2nc([C@H](C)Nc3ncnc(N)c3C#N)nc(Oc3cccc(CO)c3)c12` returned an IC50 of 7 nM.

`Cc1cc(N(C)C)cc(C2CCN(c3cc(-c4nc([C@H](C)Nc5ncnc(N)c5C#N)nn5ccc(C)c45)ccn3)CC2)n1`: the half-maximal inhibitory concentration (IC50) is 2.8 nM.

In turn, `Cc1cc(C(=O)N(C)Cc2cccc(O)c2)cc(-c2nc([C@H](C)Nc3ncnc(N)c3C#N)nn3ccc(C)c23)c1` gave a half-maximal inhibitory concentration (IC50) of 1.7 nM.

On to `Cc1ccn2nc([C@H](C)Nc3ncnc(N)c3C#N)nc(N(CCN(C)C)Cc3ccc(N4CCC(N(C)C)CC4)cc3)c12`, for which the IC50 was 6.4 nM.

For orientation: IC50 means the concentration that gives 50% inhibition.
